EP1247528A1, “Pharmaceutical or cosmetic compositions containing extracts from Arachis hypogaea L” (Cognis France S.A., priority 2001, dated 2002)

Legend:
[1] = Antioxidative capacity: inhibition of lipid peroxidation in liposomes (AOP50); type: biochemical; conditions: concentration at which lipid peroxidation is reduced by 50 %; Fe(II) ascorbate, 37 °C, 45 min, MDA-thiobarbituric acid at 532 nm
Procedure: Als Maß für die antioxidative Kapazität der Erdnusshäutchen Extrakte wurde ihre Fähigkeit bestimmt, die Lipidperoxidation in Liposomen zu verhindern. Dazu wurde eine 0,2 Gew.-%ige Liposomen Suspension aus Sojalecithin in Phosphatpuffer hergestellt. Die Lipidperoxidation wurde durch Zugabe eines Eisen(II)ascorbat Komplexes (10mM Fe(II)SO4, 50 mM Ascorbat) initiiert. Die Inkubation wurde bei 37 °C für 45 min. durchgeführt. Als Endprodukt der Lipidperoxidation entsteht Malondialdeyd, welches über eine Farbreaktion mit Thiobarbitursäure quantifiziert wird (photometrische Bestimming des Malondialdehyd-Thiobarbitursäure Komplexes bei 532 nm). Zur Bestimmung der antioxidativen Kapazität der Erdnusshäutchen Extrakte wurden diese in unterschiedlichen Konzentration vor der Zugabe des Eisen(II)ascorbat Komplexes zum Inkubationsansatz gegeben. Ermittelt wurde die Konzentration an Pflanzenextrakt (in µg/ml), bei der die Lipidperoxidation um 50 % verringert ist (= AOP50) im Vergleich zur Bestimmung ohne Zusatz an Pflanzenextrakt. D.h. je geringer die angegebene Konzentration AOP50, desto höher ist die antioxidative Kapazität des untersuchten Erdnussextraktes. Als Referenzsubstanz diente das Antioxidans n-Propylgallat. Tab.

[2] = DPPH-Test (chemical test, activity against free radicals)
Excerpt: (§1) Die optische Dichte des Extraktes lag bei 513 nm. Als erstes Testsubstrat wurde Diphenylpicrylhydrazyl (DPPH) gewählt, ein purpurrot gefärbtes stabiles Radikal, welches durch Inkontaktbringen mit Radikalfängern in sein ungefärbtes Leucoderivat übergeht. Der Farbwechsel kann photometrisch verfolgt werden. Die Meßergebnisse sind in Tabelle 2 zusammengefaßt ("DPPH-Test").. In einem weiteren Test wurde Xanthin Oxidase als Testsystem gewählt. Das Enzym bewirkt bei oxidativem Stress die Umwandlung von Purinbasen, wie z.B. Adenin oder Guanin in […], wobei die intermediär gebildeten Sauerstoffradikale durch Reaktion mit Luminol über die Lumineszenz nachgewiesen und quantitativ bestimmt werden können. In Gegenwart von Substanzen mit radikalfangenden Eigenschaften vermindert sich die Lumineszenzausbeute. Der NBT-Wert bestimmt den Gehalt von […], welches aus NBT durch das Sauerstoffradikal gebildet wird. Die optische Dichte wurde bei 540 nm bestimmt.

Xanthin Oxidase [3] = test: Luminol + Microperoxydase test (xanthine oxidase system); type: biochemical
Excerpt: as §1
(§2) Diese Ergebnisse sind in Tabelle 3 zusammengefaßt; wieder ist die Inhibierung in %-absolut angegeben ("Luminol-Test"). Tab.

Xanthin Oxidase [4] = test: NBT test (xanthine oxidase system, optical density at 540 nm); type: biochemical
Excerpt: as §1, §2

Xanthin Oxidase [5] = test: Luminol-Test (xanthine oxidase system, luminescence); type: biochemical
Excerpt: as §1, §2

humanen Fibroblasten = test: Cell protection against UVA on human fibroblasts cultured in vitro; type: cell-based; conditions: UVA 20 J/cm^2; 0,0003 % test substance
Procedure: Methode: Zur Durchführung dieser Tests wurde ein definiertes Kulturmedium mit den Fibroblasten mit fötalem Kälberserum beimpft und der Pflanzenextrakt (in dem definierten Medium mit 10 % Fötalem Kälberserum) 72 Stunden nach dem Beimpfen zugegeben.
Nach 48 stündiger Inkubation bei 37 °C und einem CO2-Gehalt von 5 % wurde das Kulturmedium durch Saline-Lösung (physiologische NaCI-Lösung) ersetzt und die Fibroblasten wurden mit einer UVA-Dosis bestrahlt (365 nm, 20 J/cm^2; Röhren: MAZDA FLUOR TFWN40).
Nach der Beendigung der Bestrahlung wurde der MDA-Spiegel (Malonaldialdehyd-Spiegel) in der überstehenden Natriumchlorid-Lösung quantitativ durch Reaktion mit Thiobarbitursäure bestimmt.
Außerdem wurde der Gehalt an Proteinen nach der Methode von Bradford bestimmt und der Gehalt an GSH untersucht wobei es sich um reduziertes Glutathion handelt. Der Gehalt an GSH wurde bstimmt nach der Methode von Hissin (Hissin PJ, Hilf R., A fluorometric method for determination of oxydised and reduced glutathione tissues, Anal. Biochem. 74, 214-226, 1976). Tab.

[6] = system: menschlichen Keratinozyten; test: Cell protection against UVB on human keratinocytes cultured in vitro; type: cell-based; conditions: UVB 50 mJ/cm^2; 0,03 % test substance
Procedure: Methode: Der Effekt von UVB-Strahlung wurde an Keratinocyten in vitro untersucht indem die Freisetzung des Cytoplasaenzyms LDH (Lactat Dehydrogenase) bestimmt wurde. Dieses Enzym dient als Marker für eine Zellschädigung.
Zur Durchführung der Tests wurde ein definiertes Medium, das fötales Kälberserum enthält, mit den Keratinozyten beimpft und der Pflanzenextrakt (mit Saline-Lösung verdünnt) 72 Stunden nach dem Beimpfen zugegeben. […]
Nach weiterer 1 tägiger Inkubation bei 37 °C und bei 5 % CO2 wurde der LDH-Gehalt im Überstand bestimmt. Der Gehalt von LDH- (Lactatdehydrogenase) wurde mittels einer Enzymreaktion bestimmt (verwendetes Kit zur Untersuchung des LDH Gehaltes von der Firma Roche). Die Anzahl adhärenter Keratinozyten wird (nach Trypsinbehandlung) mit einem Partikelzählgerät bestimmt. Tab.

[7] = Electron spin resonance spectroscopy (ESR), radical scavenging with spin trap DMPO; conditions: 5 mM solution (comparison)
Excerpt: Die Methode der Elektronenspinresonanz Spektroskopie beruht auf dem Prinzip der Generierung kurzlebiger Radikale über chemische Radikalgeneratoren, der Stabilisierung und Akkumulierung der Radikale mittels Radikalfänger (Spin-Trapper-Substanzen) und der Detektion der für die einzelnen Radikale typischen ESR-Spektren. Die radikalfangenden Eigenschaften der zu untersuchenden Substanzen werden durch die Abnahme der Signalintensitäten der getrappten Radikale charakterisiert. Im vorliegenden Fall wurde als Radikal Fänger (Spin Trapper) DMPO (5,5-Dimethyl-1-pyrrolin-N-oxid) verwendet. Die Signalintensität des mit Hilfe des DMPO gebildeten stabilen DMPO-Hydroxyadduktes wurde 100 % gesetzt. Die Abnahme dieses Signals in Abhängigkeit von der Konzentration des eingesetzten Pflanzenextraktes, ist ein Nachweis für die Radikal fangenden Eigenschaften der Extrakte.
Der Extrakt aus Beispiel 1 wurde mittels der ESR Spektroskopie untersucht. Bereits in einer Konzentration von 0,01 Gew.-% führte dieser Extrakt zu einer Abnahme des DMPO-Hydroxyaddukt Signals um 79 % auf ein Restsignal von 21 %. Bei einer Konzentration von 0,05 % zeigte sich eine Abnahme des Signals um 89 % und bei einer Konzentration von 0,5 % fand eine völlige Löschung des Signals statt. Als Vergleich diente eine 5 mM α-Tocopherol Lösung, die eine Abnahme des Signals um 65 % bewirkte.

Compound	EC50 in % DPPH-Test [2]	EC50 in % Luminol + Microperoxydase (Xanthin Oxidase [3])	EC50 in % NBT (Xanthin Oxidase [4])	EC50 in % Luminol (Xanthin Oxidase [5])	other results
CCCOC(=O)c1cc(O)c(O)c(O)c1 [n-Propylgallat]					AOP50 [1]: 2,9 µg/ml
O=C1O[C@H]([C@@H](O)CO)C(O)=C1O [Ascorbinsäure]	0,0013%	0,0058%	0,5909%	0,0006%	
Tocopherol	0,0067%	Kein Effekt bis zu 1%	Kein Effekt bis zu 1%	Kein Effekt bis zu 1%	Freigesetzter MDA (humanen Fibroblasten): 19 % im Vergleich zur Kontrolle; GSH/Protein (humanen Fibroblasten): 77 % im Vergleich zur Kontrolle; Zellproteine (humanen Fibroblasten): 95 % im Vergleich zur Kontrolle
CC(=O)Oc1ccccc1C(=O)O [Aspirin]					Anzahl Keratinocyten [6]: 52 % im Vergleich zur Kontrolle; Gehalt an LDH [6]: 46 % im Vergleich zur Kontrolle; Gehalt an PGE2 [6]: 4 % im Vergleich zur Kontrolle
Cc1c(C)c2c(c(C)c1O)CC[C@@](C)(CCC[C@H](C)CCC[C@H](C)CCCC(C)C)O2 [α-Tocopherol]					Abnahme des Signals [7]: 65%
